US12077503B2, “Substituted cyclic amides and their use as herbicides” (FMC CORPORATION, priority 2015, dated 2024)

Experiments:
Format in all cases: in vivo
[1] = system: redroot pigweed (Amaranthus retroflexus); assay: Test G Pre-Emergence Protocol; conditions: Amaranthus retroflexus, pre-emergence, 312 h, evaluated after 13 days; for pest or weed control at 15.625 g/ha: 15.625 g ai/ha; for pest or weed control at 15.625 g/ha / pest or weed control at 250 g/ha: read-out: Pigweed, Redroot damage rating (100=total damage to plant; 0=no damage to plant); for pest or weed control at 62.5 g/ha: 62.5 g ai/ha, 100=total damage to plant, 0=no damage to plant, read-out: plant damage rating, Pigweed, Redroot; for pest or weed control at 250 g/ha: 250 g ai/ha
Protocol: (§1) Seeds of corn (Zea mays), giant foxtail (Setaria faberi), barnyardgrass (Echinochloa crus-galli), ivy-leaved morning glory (Ipomoea hederacea), redroot pigweed (Amaranthus retroflexus) and velvetleaf (Abutilon theophrasti) were sown in standard soil in pots. After cultivation for one day under controlled conditions in a glasshouse (at 24/16° C., day/night; 14 hours light; 65% humidity), the plants were sprayed with an aqueous spray solution derived from the formulation of the technical active ingredient in acetone/water (50:50) solution containing 0.5% Tween 20 (polyoxyethylene sorbitan monolaurate, CAS RN 9005-64-5) to give a final dose of 15.625, 62.5 or 250 g/ha of test compound.
(§2) The test plants were then grown on under controlled conditions in a glasshouse (at 24/16° C., day/night; 14 hours light; 65% humidity) and watered twice daily. After 13 days the test was evaluated (100=total damage to plant; 0=no damage to plant). A dash (-) means no test result.

[2] = system: ivy-leaved morning glory (Ipomoea hederacea); assay: Test G Pre-Emergence Protocol; conditions: Ipomoea, pre-emergence, 312 h, evaluated after 13 days; for pest or weed control at 15.625 g/ha: 15.625 g ai/ha, read-out: Morning-glory, Ivy-leaved damage rating (100=total damage to plant; 0=no damage to plant); for pest or weed control at 62.5 g/ha: 62.5 g ai/ha, 100=total damage to plant, 0=no damage to plant, read-out: plant damage rating, Morningglory, Ivy-leaved; for pest or weed control at 250 g/ha: 250 g ai/ha, read-out: Morningglory, Ivy-leaved damage rating (100=total damage to plant; 0=no damage to plant)
Protocol: as §1, §2

[3] = system: velvetleaf (Abutilon theophrasti); assay: Test G Pre-Emergence Protocol; conditions: Abutilon theophrasti, pre-emergence, 312 h, evaluated after 13 days; for pest or weed control at 15.625 g/ha: 15.625 g ai/ha; for pest or weed control at 15.625 g/ha / pest or weed control at 250 g/ha: read-out: Velvetleaf damage rating (100=total damage to plant; 0=no damage to plant); for pest or weed control at 62.5 g/ha: 62.5 g ai/ha, 100=total damage to plant, 0=no damage to plant, read-out: plant damage rating, Velvetleaf; for pest or weed control at 250 g/ha: 250 g ai/ha
Protocol: as §1, §2

[4] = system: giant foxtail (Setaria faberi); assay: Test G Pre-Emergence Protocol; conditions: Setaria faberi, pre-emergence, 312 h, evaluated after 13 days; for pest or weed control at 15.625 g/ha: 15.625 g ai/ha; for pest or weed control at 15.625 g/ha / pest or weed control at 250 g/ha: read-out: Foxtail, Giant damage rating (100=total damage to plant; 0=no damage to plant); for pest or weed control at 62.5 g/ha: 62.5 g ai/ha, 100=total damage to plant, 0=no damage to plant, read-out: plant damage rating, Foxtail, Giant; for pest or weed control at 250 g/ha: 250 g ai/ha
Protocol: as §1, §2

[5] = system: barnyardgrass (Echinochloa crus-galli); assay: Test G Pre-Emergence Protocol; conditions: Echinochloa crus-galli, pre-emergence, 312 h, evaluated after 13 days; for pest or weed control at 15.625 g/ha: 15.625 g ai/ha, read-out: Barnyard grass damage rating (100=total damage to plant; 0=no damage to plant); for pest or weed control at 62.5 g/ha: 62.5 g ai/ha, 100=total damage to plant, 0=no damage to plant, read-out: plant damage rating, Barnyardgrass; for pest or weed control at 250 g/ha: 250 g ai/ha, read-out: Barnyardgrass damage rating (100=total damage to plant; 0=no damage to plant)
Protocol: as §1, §2

corn (Zea mays) [6] = assay: Test G Pre-Emergence Protocol; conditions: Zea mays, pre-emergence, 312 h, evaluated after 13 days; for plant injury at 15.625 g/ha: 15.625 g ai/ha; for plant injury at 15.625 g/ha / plant injury at 250 g/ha: read-out: Corn damage rating (100=total damage to plant; 0=no damage to plant); for plant injury at 62.5 g/ha: 62.5 g ai/ha, 100=total damage to plant, 0=no damage to plant, read-out: plant damage rating, Corn; for plant injury at 250 g/ha: 250 g ai/ha
Protocol: as §1, §2

[7] = system: redroot pigweed (Amaranthus retroflexus); assay: Test G Post-Emergence Protocol; conditions: Amaranthus retroflexus, post-emergence, 312 h; for pest or weed control at 15.625 g/ha: 15.625 g ai/ha, evaluated after 13 days (100=total damage to plant; 0=no damage to plant), read-out: Pigweed, Redroot damage rating; for pest or weed control at 62.5 g/ha: 62.5 g ai/ha, read-out: Pigweed, Redroot damage rating (100=total damage to plant; 0=no damage to plant); for pest or weed control at 62.5 g/ha / pest or weed control at 250 g/ha: evaluated after 13 days; for pest or weed control at 250 g/ha: 250 g ai/ha, read-out: damage to plant, Pigweed, Redroot (100=total damage to plant; 0=no damage to plant)
Protocol: as §1, with “8 days” for “one day”
as §2

[8] = system: ivy-leaved morning glory (Ipomoea hederacea); assay: Test G Post-Emergence Protocol; conditions: Ipomoea, post-emergence, 312 h; for pest or weed control at 15.625 g/ha: 15.625 g ai/ha, evaluated after 13 days (100=total damage to plant; 0=no damage to plant), read-out: Morningglory, Ivy-leaved damage rating; for pest or weed control at 62.5 g/ha: 62.5 g ai/ha, read-out: Morningglory, Ivy-leaved damage rating (100=total damage to plant; 0=no damage to plant); for pest or weed control at 62.5 g/ha / pest or weed control at 250 g/ha: evaluated after 13 days; for pest or weed control at 250 g/ha: 250 g ai/ha, read-out: damage to plant, Morningglory, Ivy-leaved (100=total damage to plant; 0=no damage to plant)
Protocol: as §1, with “8 days” for “one day”
as §2

[9] = system: velvetleaf (Abutilon theophrasti); assay: Test G Post-Emergence Protocol; conditions: Abutilon theophrasti, post-emergence, 312 h; for pest or weed control at 15.625 g/ha: 15.625 g ai/ha, evaluated after 13 days (100=total damage to plant; 0=no damage to plant), read-out: Velvetleaf damage rating; for pest or weed control at 62.5 g/ha: 62.5 g ai/ha, read-out: Velvetleaf damage rating (100=total damage to plant; 0=no damage to plant); for pest or weed control at 62.5 g/ha / pest or weed control at 250 g/ha: evaluated after 13 days; for pest or weed control at 250 g/ha: 250 g ai/ha, read-out: damage to plant, Velvetleaf (100=total damage to plant; 0=no damage to plant)
Protocol: as §1, with “8 days” for “one day”
as §2

[10] = system: giant foxtail (Setaria faberi); assay: Test G Post-Emergence Protocol; conditions: Setaria faberi, post-emergence, 312 h; for pest or weed control at 15.625 g/ha: 15.625 g ai/ha, evaluated after 13 days (100=total damage to plant; 0=no damage to plant), read-out: Foxtail, Giant damage rating; for pest or weed control at 62.5 g/ha: 62.5 g ai/ha, read-out: Foxtail, Giant damage rating (100=total damage to plant; 0=no damage to plant); for pest or weed control at 62.5 g/ha / pest or weed control at 250 g/ha: evaluated after 13 days; for pest or weed control at 250 g/ha: 250 g ai/ha, read-out: damage to plant, Foxtail, Giant (100=total damage to plant; 0=no damage to plant)
Protocol: as §1, with “8 days” for “one day”
as §2

[11] = system: barnyardgrass (Echinochloa crus-galli); assay: Test G Post-Emergence Protocol; conditions: Echinochloa crus-galli, post-emergence, 312 h; for pest or weed control at 15.625 g/ha: 15.625 g ai/ha, evaluated after 13 days (100=total damage to plant; 0=no damage to plant), read-out: Barnyardgrass damage rating; for pest or weed control at 62.5 g/ha: 62.5 g ai/ha, read-out: Barnyardgrass damage rating (100=total damage to plant; 0=no damage to plant); for pest or weed control at 62.5 g/ha / pest or weed control at 250 g/ha: evaluated after 13 days; for pest or weed control at 250 g/ha: 250 g ai/ha, read-out: damage to plant, Barnyardgrass (100=total damage to plant; 0=no damage to plant)
Protocol: as §1, with “8 days” for “one day”
as §2

corn (Zea mays) [12] = assay: Test G Post-Emergence Protocol; conditions: Zea mays, post-emergence, 312 h; for plant injury at 15.625 g/ha: 15.625 g ai/ha, evaluated after 13 days (100=total damage to plant; 0=no damage to plant), read-out: Corn damage rating; for plant injury at 62.5 g/ha: 62.5 g ai/ha, read-out: Corn damage rating (100=total damage to plant; 0=no damage to plant); for plant injury at 62.5 g/ha / plant injury at 250 g/ha: evaluated after 13 days; for plant injury at 250 g/ha: 250 g ai/ha, read-out: damage to plant, Corn (100=total damage to plant; 0=no damage to plant)
Protocol: as §1, with “8 days” for “one day”
as §2

Row | SMILES | pest or weed control at 15.625 g/ha [1] [%] | pest or weed control at 62.5 g/ha [1] [%] | pest or weed control at 250 g/ha [1] [%] | pest or weed control at 15.625 g/ha [2] [%] | pest or weed control at 62.5 g/ha [2] [%] | pest or weed control at 250 g/ha [2] [%] | pest or weed control at 15.625 g/ha [3] [%] | pest or weed control at 62.5 g/ha [3] [%] | pest or weed control at 250 g/ha [3] [%] | pest or weed control at 15.625 g/ha [4] [%] | pest or weed control at 62.5 g/ha [4] [%] | pest or weed control at 250 g/ha [4] [%] | pest or weed control at 15.625 g/ha [5] [%] | pest or weed control at 62.5 g/ha [5] [%] | pest or weed control at 250 g/ha [5] [%] | plant injury at 15.625 g/ha (corn (Zea mays) [6]) [%] | plant injury at 62.5 g/ha (corn (Zea mays) [6]) [%] | plant injury at 250 g/ha (corn (Zea mays) [6]) [%] | pest or weed control at 15.625 g/ha [7] [%] | pest or weed control at 62.5 g/ha [7] [%] | other results
1 | COc1cc([C@H]2CN(C)C(=O)[C@@H]2C(=O)Nc2ccccc2F)ccc1Cl (racemic) [Compound 1421] | 0 | 0 | 0 | 0 | 0 | 0 | 0 | 0 | 0 | 70 | 80 | 90 | 10 | 60 | 80 | 0 | 0 | 10 | 0 | 0 | pest or weed control at 250 g/ha [7]: 0%; pest or weed control at 15.625 g/ha [8]: 10%; pest or weed control at 62.5 g/ha [8]: 0%; pest or weed control at 250 g/ha [8]: 0%; pest or weed control at 15.625 g/ha [9]: 10%; pest or weed control at 62.5 g/ha [9]: 0%; pest or weed control at 250 g/ha [9]: 0%; pest or weed control at 15.625 g/ha [10]: 20%; pest or weed control at 62.5 g/ha [10]: 40%; pest or weed control at 250 g/ha [10]: 50%; pest or weed control at 15.625 g/ha [11]: 0%; pest or weed control at 62.5 g/ha [11]: 20%; pest or weed control at 250 g/ha [11]: 20%; plant injury at 15.625 g/ha (corn (Zea mays) [12]): 10%; plant injury at 62.5 g/ha (corn (Zea mays) [12]): 10%; plant injury at 250 g/ha (corn (Zea mays) [12]): 10%
2 | Cc1c(NC(=O)[C@H]2C(=O)N(C)C[C@@H]2c2ccc(C(F)(F)F)cc2)cccc1[N+](=O)[O-] (racemic) [Compound 1423] | 0 | 0 | 0 | 0 | 0 | 0 | 0 | 0 | 0 | 10 | 60 | 70 | 10 | 10 | 30 | 10 | 20 | 10 | 0 | 0 | pest or weed control at 250 g/ha [7]: 50%; pest or weed control at 15.625 g/ha [8]: 0%; pest or weed control at 62.5 g/ha [8]: 0%; pest or weed control at 250 g/ha [8]: 0%; pest or weed control at 15.625 g/ha [9]: 0%; pest or weed control at 62.5 g/ha [9]: 0%; pest or weed control at 250 g/ha [9]: 0%; pest or weed control at 15.625 g/ha [10]: 0%; pest or weed control at 62.5 g/ha [10]: 20%; pest or weed control at 250 g/ha [10]: 60%; pest or weed control at 15.625 g/ha [11]: 0%; pest or weed control at 62.5 g/ha [11]: 10%; pest or weed control at 250 g/ha [11]: 10%; plant injury at 15.625 g/ha (corn (Zea mays) [12]): 10%; plant injury at 62.5 g/ha (corn (Zea mays) [12]): 0%; plant injury at 250 g/ha (corn (Zea mays) [12]): 10%
